Results published in patent US7989008B2, “Cosmetic preparations designed to reduce unsightly cellulite” (Menarini Industrie Farmaceutiche Riunite S.R.L., priority 2007, dated 2011).

Test system: tissue affected by cellulite (surface temperature of the skin)
Assay: Liquid-crystal thermography, indirect instrumental assessment of treatment efficacy
Assay type: in vivo, women
Details: after repeated treatment
Source text: Liquid-crystal thermography was used to conduct an indirect instrumental assessment of the efficacy of the treatment. On the basis of the surface temperature, this technique distinguishes between normal adipose tissue and tissue affected by cellulite, in which the reduced blood flow causes progressive cooling of the skin, proportional to the severity of the cosmetic problem. After repeated treatment with compound (I), the difference in temperature between the normal skin area (unaffected by cellulite) and the affected area had reduced considerably, about 70% of the temperature reduction previously observed having been eliminated. The effects of treatment with compounds A and B were evaluated for comparison purposes.

| SMILES | temperature difference between normal skin area and area affected by cellulite eliminated |
| --- | --- |
| CC1(C)C(=O)NN=C1c1ccc(NC2=C(Cc3ccc(F)cc3)C(=O)CCC2)cc1F [Compound B, 5-{4-[2-(4-fluoro-benzyl)-3-oxo-cyclohex-1-enylamine]-2-fluoro-phenyl}-4,4-dimethyl-2,4-dihydro-pyrazol-3-one] | ~50% |
| CC1(C)C(=O)NN=C1c1ccc(NC2=C(Cc3cccc(C#N)c3)C(=O)CCC2)c(F)c1F [Compound A, 3-[2-[4-(4,4-dimethyl-5-oxo-4,5-dihydro-1-H-pyrazol-3-yl)-2,3-difluoro-phenylamine]-6-oxocyclohex-1-enylmethyl]-benzonitrile] | ~50% |
| CC1(C)C(=O)NN=C1c1ccc(NC2=C(Cc3ccc(F)cc3)C(=O)CCC2)c(F)c1F [Compound of formula (I), 5-{4-[2-(4-fluoro-benzyl)-3-oxo-cyclohex-1-enylamine]-2,3-difluoro-phenyl}-4,4-dimethyl-2,4-dihydropyrazol-3-one] | about 70% |
